In US20060216336A1, “Transdermal therapeutic system for Parkinson's Disease” (priority 2002, published 2006):

Test: Multiple dose trial with rotating patch application sites in early-stage Parkinson's disease: rotigotine pharmacokinetics (Example 4)
Text: Each day, a fresh patch was placed on a new skin site (abdomen, flank, upper arm, shoulder, thigh, hip) in a rotating order. The silicone transdermal patches were made in accordance with the teachings of U.S. Patent Application Publication No. US 2003/0026830 at paragraphs 38-42, U.S. Patent Application Publication No. US 2003/0027793 at paragraphs 37-41 and U.S. Pat. No. 6,884,434, columns 5-6, Example 2 and comprised the following layers and components:
The trial consisted of an Eligibility Assessment (EA), a 24-day Titration Phase (4.5 to 18.0 mg/day doses; incremental increases of 4.5mg/day every 6 days), a 6-day Maintenance Phase (18.0 mg/day dose), a 6-day De-escalation Phase (13.5/9.0/4.5mg/day decreasing dose every 2 days), and a Safety Follow-Up visit 2 days following the last dose.
The silicone transdermal patches were made in accordance with the teachings of U.S. Patent Application Publication No. US 2003/0026830 at paragraphs 3842 and U.S. Patent Application Publication No. US 2003/0027793 at paragraphs 3741 comprised the following layers and components as disclosed above
The 18.0 mg/day dose used 2×20 cm^2 patches. Initial doses were 4.5 mg/day with weekly increases of 4.5 mg/day to a maximum target dose of 18.0 mg/day.

[1] = application site Abdomen, normalized for body weight and apparent dose, Day 27 and Day 30 combined (PKS)
[2] = application site Flank, normalized for body weight and apparent dose, Day 27 and Day 30 combined (PKS)
[3] = application site Hip, normalized for body weight and apparent dose, Day 27 and Day 30 combined (PKS)
[4] = application site Shoulder, normalized for body weight and apparent dose, Day 27 and Day 30 combined (PKS)
[5] = application site Thigh, normalized for body weight and apparent dose, Day 27 and Day 30 combined (PKS)
[6] = application site Upper arm, normalized for body weight and apparent dose, Day 27 and Day 30 combined (PKS)

In the case of `CCCN(CCc1cccs1)[C@H]1CCc2c(O)cccc2C1` [rotigotine, (6S)-6{propyl[2-(2-thienyl)ethyl]amino}-5,6,7,8-tetrahydro-1-naphthalenol], the “Time to Maximum Concentration” value (Day 30, site F (flank), Geo. Mean) is reported as 15.43 h, the “Time to Maximum Concentration” value (Days 27 and 30 combined, site UA (upper arm), Mean) is reported as 12.71 h and the “AUC0-t,ss,normalized, Range” value [1] is reported as 89.3 to 952.1 ng·kg·h/mL/mg. The “Cmax,ss, normalized, Geometric mean (SD)” value [1] was 16.367 (1.6473) ng * kg/mL/mg, the “Cmax,ss, normalized, Median” value [1] was 14.906 ng·kg/mL/mg and the “Cmax,ss, normalized, Geometric mean (SD)” value [2] was 17.168 (1.5894) ng * kg/mL/mg. For the same molecule, the “Cmax,ss, normalized, Mean” value [2] was 18.976 ng·kg/mL/mg, the “Cmax,ss, normalized, Median” value [2] was 16.666 ng·kg/mL/mg and the “Cmax,ss, normalized, Geometric mean (SD)” value [3] was 17.253 (1.6685) ng * kg/mL/mg. For the same molecule, the “Cmax,ss, normalized, Mean” value [3] was 19.956 ng·kg/mL/mg, the “Cmax,ss, normalized, Median” value [3] was 15.577 ng·kg/mL/mg and the “Cmax,ss, normalized, Geometric mean (SD)” value [4] was 14.499 (1.5627) ng * kg/mL/mg. For the same molecule, the “Cmax,ss, normalized, Mean” value [4] was 15.898 ng·kg/mL/mg, the “Cmax,ss, normalized, Median” value [4] was 15.328 ng·kg/mL/mg and the “Cmax,ss, normalized, Geometric mean (SD)” value [5] was 16.046 (1.5548) ng * kg/mL/mg. The “Cmax,ss, normalized, Mean” value [5] was 17.793 ng·kg/mL/mg, the “Cmax,ss, normalized, Median” value [5] was 15.506 ng·kg/mL/mg and the “Cmax,ss, normalized, Geometric mean (SD)” value [6] was 16.508 (1.4597) ng * kg/mL/mg. The “Cmax,ss, normalized, Mean” value [6] was 17.727 ng·kg/mL/mg, the “Cmax,ss, normalized, Median” value [6] was 15.499 ng·kg/mL/mg and the “plasma concentration at Time 0 (Ctrough)” value (human, in vivo) was “about 1 ng/mL”. It also gave a concentration at 30 day (human, in vivo, 18 mg/day, Average Concentration, Day 30, site UA (upper arm), Median) of 0.895 ng/mL, a concentration at […] (human, in vivo, 18 mg/day, rotigotine plasma concentration Geo. Mean, Hip, Day 27, 23.5 H) of 0.875 ng/mL and a concentration at […] (human, in vivo, 18 mg/day, rotigotine plasma concentration Geo. Mean, Hip, Day 30, 23.5 H) of 0.758 ng/mL. It also gave a concentration at […] (human, in vivo, 18 mg/day, rotigotine plasma concentration Geo. Mean, Shoulder, Day 30, 23.5 H) of 0.851 ng/mL, a concentration at […] (human, in vivo, 18 mg/day, rotigotine plasma concentration Geo. Mean, Shoulder, Days 27 & 30 Combined, 23.5 H) of 0.82 ng/mL and a concentration at […] (human, in vivo, 18 mg/day, rotigotine plasma concentration Geo. Mean, Thigh, Day 30, 23.5 H) of 0.656 ng/mL. The concentration at 18 h (human, in vivo, 18 mg/day, rotigotine plasma concentration Geo. Mean, Thigh, Days 27 & 30 Combined, 18 H) was 0.895 ng/mL, the concentration at […] (human, in vivo, 18 mg/day, rotigotine plasma concentration Geo. Mean, Thigh, Days 27 & 30 Combined, 23.5 H) was 0.639 ng/mL and the concentration at […] (human, in vivo, 18 mg/day, rotigotine plasma concentration Geo. Mean, Upper Arm, Day 30, 23.5 H) was 0.833 ng/mL. For the same molecule, the concentration at […] (human, in vivo, 18 mg/day, rotigotine plasma concentration Geo. Mean, Upper Arm, Days 27 & 30 Combined, 23.5 H) was 0.789 ng/mL, the concentration at […] (human, in vivo, 18 mg/day, rotigotine plasma concentration Max, Hip, Day 27, 23.5 H) was 1.75 ng/mL and the concentration at […] (human, in vivo, 18 mg/day, rotigotine plasma concentration Max, Hip, Day 30, 23.5 H) was 1.35 ng/mL. It also gave a concentration at […] (human, in vivo, 18 mg/day, rotigotine plasma concentration Max, Hip, Days 27 & 30 Combined, 23.5 H) of 1.75 ng/mL, a concentration at […] (human, in vivo, 18 mg/day, rotigotine plasma concentration Max, Shoulder, Day 30, 23.5 H) of 3.01 ng/mL and a concentration at […] (human, in vivo, 18 mg/day, rotigotine plasma concentration Max, Shoulder, Days 27 & 30 Combined, 23.5 H) of 3.01 ng/mL. For the same molecule, the concentration at […] (human, in vivo, 18 mg/day, rotigotine plasma concentration Max, Thigh, Day 30, 23.5 H) was 1.59 ng/mL, the concentration at […] (human, in vivo, 18 mg/day, rotigotine plasma concentration Max, Thigh, Days 27 & 30 Combined, 23.5 H) was 1.59 ng/mL and the concentration at […] (human, in vivo, 18 mg/day, rotigotine plasma concentration Max, Upper Arm, Day 27, 23.5 H) was 1.88 ng/mL. The concentration at […] (human, in vivo, 18 mg/day, rotigotine plasma concentration Max, Upper Arm, Day 30, 23.5 H) was 1.67 ng/mL, the concentration at […] (human, in vivo, 18 mg/day, rotigotine plasma concentration Max, Upper Arm, Days 27 & 30 Combined, 23.5 H) was 1.88 ng/mL and the concentration at […] (human, in vivo, 18 mg/day, rotigotine plasma concentration Mean, Hip, Day 27, 23.5 H) was 0.96 ng/mL. For the same molecule, the concentration at […] (human, in vivo, 18 mg/day, rotigotine plasma concentration Mean, Hip, Day 30, 23.5 H) was 0.82 ng/mL, the concentration at […] (human, in vivo, 18 mg/day, rotigotine plasma concentration Mean, Hip, Days 27 & 30 Combined, 23.5 H) was 0.89 ng/mL and the concentration at […] (human, in vivo, 18 mg/day, rotigotine plasma concentration Mean, Shoulder, Day 30, 23.5 H) was 1.02 ng/mL. It also gave a concentration at […] (human, in vivo, 18 mg/day, rotigotine plasma concentration Mean, Shoulder, Days 27 & 30 Combined, 23.5 H) of 0.966 ng/mL, a concentration at […] (human, in vivo, 18 mg/day, rotigotine plasma concentration Mean, Thigh, Day 30, 23.5 H) of 0.784 ng/mL and a concentration at […] (human, in vivo, 18 mg/day, rotigotine plasma concentration Mean, Thigh, Days 27 & 30 Combined, 23.5 H) of 0.735 ng/mL. It also gave a concentration at […] (human, in vivo, 18 mg/day, rotigotine plasma concentration Mean, Upper Arm, Day 27, 23.5 H) of 0.936 ng/mL, a concentration at […] (human, in vivo, 18 mg/day, rotigotine plasma concentration Mean, Upper Arm, Day 30, 23.5 H) of 0.924 ng/mL and a concentration at […] (human, in vivo, 18 mg/day, rotigotine plasma concentration Mean, Upper Arm, Days 27 & 30 Combined, 23.5 H) of 0.93 ng/mL. It also gave a concentration at […] (human, in vivo, 18 mg/day, rotigotine plasma concentration Median, Hip, Day 27, 23.5 H) of 0.957 ng/mL, a concentration at […] (human, in vivo, 18 mg/day, rotigotine plasma concentration Median, Hip, Day 30, 23.5 H) of 0.692 ng/mL and a concentration at […] (human, in vivo, 18 mg/day, rotigotine plasma concentration Median, Shoulder, Day 30, 23.5 H) of 0.848 ng/mL. For the same molecule, the concentration at […] (human, in vivo, 18 mg/day, rotigotine plasma concentration Median, Shoulder, Days 27 & 30 Combined, 23.5 H) was 0.799 ng/mL, the concentration at […] (human, in vivo, 18 mg/day, rotigotine plasma concentration Median, Thigh, Day 30, 23.5 H) was 0.68 ng/mL and the concentration at […] (human, in vivo, 18 mg/day, rotigotine plasma concentration Median, Thigh, Days 27 & 30 Combined, 23.5 H) was 0.668 ng/mL. For the same molecule, the concentration at […] (human, in vivo, 18 mg/day, rotigotine plasma concentration Median, Upper Arm, Day 30, 23.5 H) was 0.899 ng/mL, the concentration at […] (human, in vivo, 18 mg/day, rotigotine plasma concentration Median, Upper Arm, Days 27 & 30 Combined, 23.5 H) was 0.899 ng/mL and the concentration at […] (human, in vivo, 18 mg/day, rotigotine plasma concentration Min, Hip, Day 27, 23.5 H) was 0.261 ng/mL. The concentration at […] (human, in vivo, 18 mg/day, rotigotine plasma concentration Min, Hip, Day 30, 23.5 H) was 0.461 ng/mL, the concentration at […] (human, in vivo, 18 mg/day, rotigotine plasma concentration Min, Hip, Days 27 & 30 Combined, 23.5 H) was 0.261 ng/mL and the concentration at […] (human, in vivo, 18 mg/day, rotigotine plasma concentration Min, Shoulder, Day 30, 23.5 H) was 0.405 ng/mL. For the same molecule, the concentration at […] (human, in vivo, 18 mg/day, rotigotine plasma concentration Min, Shoulder, Days 27 & 30 Combined, 23.5 H) was 0.387 ng/mL and the concentration at […] (human, in vivo, 18 mg/day, rotigotine plasma concentration Min, Thigh, Day 30, 23.5 H) was 0.152 ng/mL.
